Results from ChEMBL document CHEMBL4190379 (Bioorg Med Chem Lett, 2018).

How the values were obtained:
[1] = molecular target: T1, Bromodomain-containing protein 4 (Homo sapiens, UniProt O60885); test: Binding affinity to BRD4 in human H1299 cells stably expressing E2 and HPV16-LCR luciferase reporter incubated for 24 hrs by Bright-Glo luciferase reporter gene assay based BRD4 engagement assay; assay type: cell-based
[2] = molecular target: T1, Bromodomain-containing protein 4; test: Binding affinity to His-tagged BRD4 bromodomain 1 to 2 (K57 to K550 amino acids) (unknown origin) using Alexa647-labeled BET-inhibitor as fluorescent probe by bromodomain TR-FRET binding assay; assay type: single protein
[3] = test system: MX1; test: Antiproliferative activity against human MX1 cells incubated for 72 hrs by cell-titer Glo assay; assay type: functional, cell-based; conditions: MX1, 72 h
[4] = Oral bioavailability in mouse at 10 mg/kg; assay type: ADME, organism-based; conditions: in vivo
[5] = Intrinsic unbound clearance in human liver microsomes; assay type: ADME, microsome
[6] = Permeability of the compound by PAMPA method; assay type: ADME; conditions: read-out: permeability
[7] = Intrinsic unbound clearance in mouse liver microsomes; assay type: ADME, microsome
[8] = test system: Mus musculus; test: Unbound clearance in mouse at 10 mg/kg, po; assay type: ADME, organism-based; conditions: in vivo
[9] = AUC in mouse at 10 mg/kg, po; assay type: ADME, organism-based; conditions: in vivo

CCS(=O)(=O)Nc1ccc2c(c1)-c1c[nH]c(=O)c3c1c(cn3C)CN2c1ccc(F)cc1
IC50 [1]: 4.3 nM | Ki [2]: 4.8 nM | EC50 [3]: 5.6 nM

Cn1cc(-c2cc(S(C)(=O)=O)ccc2NCC2CC2)c2cc[nH]c2c1=O
EC50 [3]: 17 nM

CCS(=O)(=O)Nc1cnc2c(c1)-c1c[nH]c(=O)c3c1c(cn3C)CN2c1ccc(F)cc1F
IC50 [1]: 32 nM | Ki [2]: 4.4 nM | EC50 [3]: 18 nM

Cn1cc2c3c(c[nH]c3c1=O)CN(CC1CC1)c1ccccc1-2
IC50 [1]: 23 nM | Ki [2]: 16 nM | EC50 [3]: 7.3 nM

CCC(=O)N1Cc2c[nH]c3c(=O)n(C)cc(c23)-c2cc(CS(C)(=O)=O)ccc21
IC50 [1]: 9 nM | Ki [2]: 7.3 nM | EC50 [3]: 4.7 nM

Cn1cc2c3c(c[nH]c(=O)c31)-c1cc(CS(C)(=O)=O)ccc1N(C(=O)C1CC1)C2
IC50 [1]: 31 nM | Ki [2]: 7.7 nM | EC50 [3]: 16 nM

Cn1cc(-c2cc(CS(C)(=O)=O)ccc2NCC2CC2)c2cc[nH]c(=O)c21
IC50 [1]: 200 nM | Ki [2]: 220 nM | EC50 [3]: 140 nM

Cn1cc(-c2ccccc2NCC2CC2)c2cc[nH]c(=O)c21
IC50 [1]: 5000 nM | Ki [2]: 1500 nM | EC50 [3]: 3300 nM

Cn1cc2c3c(c[nH]c3c1=O)CN(CC1CC1)c1ccc(S(C)(=O)=O)cc1-2
IC50 [1]: 28 nM | Ki [2]: 26 nM | EC50 [3]: 15 nM

Cn1cc2c3c(c[nH]c3c1=O)CN(C(=O)C1CC1)c1ccc(CS(C)(=O)=O)cc1-2
IC50 [1]: 21 nM | Ki [2]: 7.1 nM | EC50 [3]: 7.8 nM

CCS(=O)(=O)Nc1cnc2c(c1)-c1cn(C)c(=O)c3[nH]cc(c13)CN2c1ccc(F)cc1F
IC50 [1]: 4.1 nM | Ki [2]: 4.1 nM | EC50 [3]: 7 nM

Cn1cc2c3c(c[nH]c3c1=O)CN(c1ccc(F)cc1)c1ccc(CS(C)(=O)=O)cc1-2
bioavailability [4]: 23% | IC50 [1]: 1.5 nM | CL free [5]: < 41.7 mL/min/kg | Papp [6]: 6.6 ×10⁻⁶ cm/s | Ki [2]: 0.87 nM | CL free [7]: 1400 mL/min/kg | CL free [8]: 5170 mL/min/kg | AUC [9]: 0.67 µM·h | EC50 [3]: 0.72 nM

CCS(=O)(=O)Nc1ccc2c(c1)-c1c[nH]c(=O)c3c1c(cn3C)CN2c1ccccn1
IC50 [1]: 18 nM | Ki [2]: 2.7 nM | EC50 [3]: 4.9 nM

Cn1cc(-c2cc(CS(C)(=O)=O)ccc2NCC2CC2)c2cc[nH]c2c1=O
EC50 [3]: 43 nM

Cn1cc(-c2ccccc2NCC2CC2)c2cc[nH]c2c1=O
EC50 [3]: 1400 nM

Cn1cc2c3c(c[nH]c(=O)c31)CN(CC1CC1)c1ccccc1-2
IC50 [1]: 95 nM | Ki [2]: 43 nM | EC50 [3]: 57 nM

Cn1cc(-c2cc(S(C)(=O)=O)ccc2NCC2CC2)c2cc[nH]c(=O)c21
IC50 [1]: 150 nM | Ki [2]: 80 nM | EC50 [3]: 140 nM

Cn1cc2c3c(c[nH]c(=O)c31)-c1cc(CS(C)(=O)=O)ccc1N(c1ccccn1)C2
IC50 [1]: 2.3 nM | CL free [5]: 65 mL/min/kg | Papp [6]: 5.9 ×10⁻⁶ cm/s | Ki [2]: 2.9 nM | CL free [7]: 140 mL/min/kg | AUC [9]: 1.2 µM·h | EC50 [3]: 5.5 nM

Cn1cc2c3c(c[nH]c(=O)c31)-c1cc(CS(C)(=O)=O)ccc1N(c1ccc(F)cc1F)C2
IC50 [1]: 6.5 nM | Ki [2]: 2.7 nM | EC50 [3]: 4 nM

Cn1cc2c3c(c[nH]c(=O)c31)CN(CC1CC1)c1ccc(S(C)(=O)=O)cc1-2
IC50 [1]: 190 nM | Ki [2]: 180 nM | EC50 [3]: 140 nM

Cn1cc2c3c(c[nH]c3c1=O)CN(C1CCC(F)(F)CC1)c1ccc(CS(C)(=O)=O)cc1-2
bioavailability [4]: 48% | IC50 [1]: 3.7 nM | CL free [5]: 67 mL/min/kg | Papp [6]: 7.3 ×10⁻⁶ cm/s | Ki [2]: 4.7 nM | CL free [7]: 267 mL/min/kg | CL free [8]: 4830 mL/min/kg | AUC [9]: 0.13 µM·h | EC50 [3]: 1.4 nM

COC(=O)N1Cc2cn(C)c3c(=O)[nH]cc(c23)-c2cc(CS(C)(=O)=O)ccc21
IC50 [1]: 48 nM | Ki [2]: 17 nM | EC50 [3]: 78 nM

Cn1cc2c3c(c[nH]c(=O)c31)CN(CC1CC1)c1ccc(CS(C)(=O)=O)cc1-2
bioavailability [4]: 23% | IC50 [1]: 23 nM | CL free [5]: < 45 mL/min/kg | Papp [6]: 2.5 ×10⁻⁶ cm/s | Ki [2]: 12 nM | CL free [7]: < 130 mL/min/kg | CL free [8]: 733 mL/min/kg | AUC [9]: 0.64 µM·h | EC50 [3]: 19 nM

CCS(=O)(=O)Nc1ccc(Oc2ccc(F)cc2F)c(-c2cn(C)c(=O)c3[nH]ccc23)c1 [MIVEBRESIB]
IC50 [1]: 20 nM

Cn1cc2c3c(c[nH]c3c1=O)CN(CC1CC1)c1ccc(CS(C)(=O)=O)cc1-2
bioavailability [4]: 8.2% | IC50 [1]: 4.6 nM | CL free [5]: 183 mL/min/kg | Papp [6]: 4.3 ×10⁻⁶ cm/s | Ki [2]: 8.4 nM | CL free [7]: 300 mL/min/kg | CL free [8]: 450 mL/min/kg | AUC [9]: 0.16 µM·h | EC50 [3]: 2 nM
